The structures appear in SMILES notation. Like-named read-outs stand apart in the source and are kept apart here.

As a reminder, the pKa is the negative logarithm of the acid dissociation constant.

This series in a line: pKa of boronic acid monomer. It is filed as physicochemical. Conditions: monomer forming the repeating units of the copolymer.

Turning to `C=CC(=O)Nc1cccc(B(O)O)c1` [APBA, 3-(acrylamido)phenylboronic acid], under “read-out: pKa”, the pKa is roughly 8.1.
As to `C=CC(=O)NCCNC(=O)c1ccc(B(O)O)cc1Cl` [CPBA], the pKa result is reported as “about 7.2”.

These data come from US20250276007A1, “CARBAMOYLPHENYLBORONIC ACID-CONTAINING ACRYLIC MONOMERS AND USES THEREOF” (Alcon Inc., priority 2024, published 2025).
